Experimental data as given in patent US20220347180A1, “ENHANCING CANCER THERAPY TREATMENT WITH BH3 MIMETICS” (THE REGENTS OF THE UNIVERSITY OF COLORADO, A BODY CORPORATE, priority 2019, published 2022).
Entries after “also recorded” stand apart in the source; their conditions may differ. Read-outs that look alike come from different tables or passages of the source.

Columns and labels:
[1] = tested on: regulatory T cells (Tregs); conditions: cited from earlier work
[2] = higher doses and more frequently than in the current study; cited from earlier work
1205Lu melanoma line = experiment: ATP viability assay (Cell Titer-Glo); format: cell-based; conditions: Homo sapiens, BRAFV600E, 48 h
Method: (§1) Cells were treated for 48 h for viability assays and primary sphere assays.
(§2) ATP viability assay, primary and secondary sphere assays: Cell viability was evaluated via Cell Titer-Glo Luminescent cell viability assay (Promega Corp., Madison, Wis.) according to the manufacturer's protocol. All sphere assays were completed as previously described. The experimental schematic for the primary and secondary sphere assays was described previously. All assays were performed in no less than triplicate for each cell line and repeated at least three times for each line. Drug treatments began 120 h after seeding in the primary sphere assay and 24 h after seeding for the monolayer ATP assay.
(§3) Calculation of IC50 and Combination index (CI) values: IC50 values were calculated from the relative viability results of ATP assays, and were derived by a sigmoidal dose (log)-response (variable slope) curve with GraphPad Prism 8 software. […] This method uses a median-effect equation and Combination-index theorem to calculate synergy between two drugs and identifies the drug interaction as values […]. This is defined as combination-index values (CI values). The program requires entering a series of “dose (D) and effect (fa)” into the program for each drug alone as well as the combination therapy.

A375 melanoma line = experiment: ATP viability assay (Cell Titer-Glo); format: cell-based; conditions: Homo sapiens, A-375; A375, BRAFV600E, 48 h
Method: as §1, §2, §3

Hs294T melanoma line = experiment: ATP viability assay (Cell Titer-Glo); format: cell-based; conditions: Homo sapiens, Hs 294T, WT for BRAF/NRAS, 48 h
Method: as §1, §2, §3

Hs852T melanoma line = experiment: ATP viability assay (Cell Titer-Glo); format: cell-based; conditions: Homo sapiens, WT for BRAF, 48 h
Method: as §1, §2, §3

MB1692 melanoma line = experiment: ATP viability assay (Cell Titer-Glo); format: cell-based; conditions: Homo sapiens; MB1692, AGK-BRAF, 48 h
Method: as §1, §2, §3

MB2114 melanoma line = experiment: ATP viability assay (Cell Titer-Glo); format: cell-based; conditions: Homo sapiens; MB2114, BRAF V600E, 48 h
Method: as §1, §2, §3

MB2141 melanoma line = experiment: ATP viability assay (Cell Titer-Glo); format: cell-based; conditions: Homo sapiens; MB2141, EML4-ALK, mucosal, 48 h
Method: as §1, §2, §3

MB2724 melanoma line = experiment: ATP viability assay (Cell Titer-Glo); format: cell-based; conditions: Homo sapiens; MB2724, Triple WT, acral, 48 h
Method: as §1, §2, §3

MB3429 melanoma line = experiment: ATP viability assay (Cell Titer-Glo); format: cell-based; conditions: Homo sapiens, 48 h
Method: as §1, §2, §3

MB3447 melanoma line = experiment: ATP viability assay (Cell Titer-Glo); format: cell-based; conditions: Homo sapiens; MB3447, Triple WT, 48 h
Method: as §1, §2, §3

MB3616 melanoma line = experiment: ATP viability assay (Cell Titer-Glo); format: cell-based; conditions: Homo sapiens; MB3616, NRAS Q61K, 48 h
Method: as §1, §2, §3

MB3961 melanoma line = experiment: ATP viability assay (Cell Titer-Glo); format: cell-based; conditions: Homo sapiens; MB3961, NRAS Q61K, 48 h
Method: as §1, §2, §3

MB4667 melanoma line = experiment: ATP viability assay (Cell Titer-Glo); format: cell-based; conditions: Homo sapiens; MB4667, NRAS Q61R, acral, 48 h
Method: as §1, §2, §3

SKMEL-28 melanoma line = experiment: ATP viability assay (Cell Titer-Glo); format: cell-based; conditions: Homo sapiens, SK-MEL-28; SKMEL-28, BRAFV600E, 48 h
Method: as §1, §2, §3

WM852c melanoma line = experiment: ATP viability assay (Cell Titer-Glo); format: cell-based; conditions: Homo sapiens, NRAS, 48 h
Method: as §1, §2, §3

human melanoma lines = experiment: ATP viability assay, panel of melanoma lines; format: cell-based; conditions: single drug, up to 2.5 uM, 48 h
Method: as §1, §2, §3

B16F10 melanoma cells = format: in vivo; conditions: retro-orbitally daily at 40 mg/kg from day 6 post implantation
Method: (§4) 2.0×10^5 B16F10 melanoma cells were injected in the flanks of 7-week-old C57BL/6J mice on day 0. MCL1 inhibitors was administered retro-orbitally daily at 40 mg/kg, starting at day 6 post tumor implantation. […] Flow cytometry of tumor-infiltrating immune cells of Veh (vehicle control) and 40 mg/kg MCL1 inhibitor S63845 treated tumors at day 10 post tumor implantation. […] Similar experiments as in a, except with i.p injection. […] 2.0×10^5 B16F10 melanoma cells were injected in the flanks of 7-week-old C57BL/6J mice. MCL1-i was administered through retro-orbital injection daily at 40 mg/kg on days 5-9, and anti-PD1 was injected intraperitoneally at 250 ug on days 7, 11, 14 and 16.
(§5) Tumor volume was measured every 2 days with digital calipers. The following formula was used to calculate tumor volume: tumor volume (mm3)=(length in mm×width in mm2)/2.
Tumor volume was measured every 2 days with digital calipers.

[3] = tested on: tumor-infiltrating immune cells; experiment: Flow cytometry of tumor-infiltrating immune cells, B16 syngeneic model; format: in vivo, mouse; conditions: 40 mg/kg, day 10 post tumor implantation
Method: as §4, §5

MP41 = MP41 uveal melanoma xenograft
Method: A uveal melanoma cell line, MP41, was used in the xenograft study, and tumor volume Panel (a) and weight of the mice Panel (b) were measured.
The viability of the DMSO control for each cell line was set to 100%. Panel (c) A uveal melanoma line, MP41, was used in the xenograft study, and tumor volume and weight of the mice were measured.
Drug treatments started when the tumors were palpable. Treatment groups consisted of randomly divided mice of at least 8 tumors each group. All drugs were prepared according to the manufacturer's protocol, or previously described. S63845 was administered at 25 mg/kg twice weekly. […] The tumor samples were collected at the end of the experiment for further studies.

A375 cells = experiment: Viability of A375 cells with BCL2 or MCL1 knockdown; format: cell-based, human; conditions: A375, 48 h
Text: (a and b) Comparison between two genotypic groups: BRAF-hotspot mutated (MUT) (n=110) and BRAF-WT (WT) (harboring RAS hotspot mutated, any NF1 mutated, and triple wild type n=122). Panel (a) mRNA expression values for BCL2, CASP8, PDCD4, and MCL1. Panel (b) Relative RPPA protein expression values for PDCD4, CASP8, and BCL2. MCL1 was not included on the RPPA panel. Each dot represents an individual sample, and the horizontal line represents the mean. Panels (c) and (d) show the effects of BCL2 or MCL1 knockdown in A375 cells. Cells were treated with the indicated drugs for 48 h. […] Error bars represent +/−SEM.
Creation of short hairpin RNA transduced cell lines and CRISPR/Cas9-mediated BIM knockout cell lines: ShRNA lentiviral particles (Santa Cruz Biotechnology, Dallas, Tex.) were used to construct stable cell lines as previously described. BIM-knockout lines were generated using CRISPR/Cas9 technology, as previously described.

Compound	IC50 (1205Lu melanoma line)	IC50 (A375 melanoma line)	IC50 (Hs294T melanoma line)	IC50 (Hs852T melanoma line)	IC50 (MB1692 melanoma line)	IC50 (MB2114 melanoma line)	IC50 (MB2141 melanoma line)	IC50 (MB2724 melanoma line)	IC50 (MB3447 melanoma line)	IC50 (MB3616 melanoma line)	IC50 (MB3961 melanoma line)	IC50 (MB4667 melanoma line)	IC50 (SKMEL-28 melanoma line)	IC50 (WM852c melanoma line)	further results
COC1=CC(c2cc3ccccc3[nH]2)=N/C1=C\c1[nH]c(C)cc1C [GX15-070]	–	–	–	–	–	–	–	–	–	–	–	–	–	–	cell death of regulatory T cells [1]: preferentially induces cell death
Cc1c2c(nn1C)CSCc1cc(n(C)n1)CSc1cc(c3ccccc3c1)OCCCc1c(C(=O)O)n(C)c3c-2c(Cl)ccc13 [AZD5991]	–	–	–	–	–	–	–	–	–	–	–	–	–	–	toxicity [2]: Minimal toxicity
Cc1c(-c2c(-c3ccc(F)o3)sc3ncnc(O[C@H](Cc4ccccc4OCc4ccnn4CC(F)(F)F)C(=O)O)c23)ccc(OCCN2CCN(C)CC2)c1Cl [S63845]	7.2 µM	6.33 µM	2.9 µM	6.14 µM	7.42 µM	> 10 µM	2.67 µM	3.24 µM	5.49 µM	8.11 µM	2.91 µM	> 10 µM	4 µM	7.81 µM	IC50 (MB3429 melanoma line): 8.85 µM; effect on cell viability (human melanoma lines): little effect on cell viability; tumor growth (B16F10 melanoma cells): blocked tumor growth; also recorded: inhibited tumor growth curve; frequency of MDSCs in tumors [3]: drastically decreased; frequency of tumor-infiltrating CD8+ T cells [3]: increased; mouse weight (MP41): without affecting mouse weight; tumor growth (tumor volume) (MP41): significantly inhibited uveal melanoma tumor growth; sensitivity after BCL2 knockdown (shBCL2) (A375 cells): sensitized cells
CC1(C)CCC(CN2CCN(c3ccc(C(=O)NS(=O)(=O)c4ccc(NCC5CCOCC5)c([N+](=O)[O-])c4)c(Oc4cnc5[nH]ccc5c4)c3)CC2)=C(c2ccc(Cl)cc2)C1 [ABT-199, venetoclax]	> 10 µM	> 10 µM	> 10 µM	8.8 µM	> 10 µM	> 10 µM	> 10 µM	> 10 µM	> 10 µM	9.69 µM	> 10 µM	7.69 µM	> 10 µM	> 10 µM	IC50 (MB3429 melanoma line; MB3429, BRAF G596C, GNA11 R183C, read-out: IC50): 3.91 µM
